Type in all cases: in vivo
The test system of assay [1] is Vetch Aphid (Megoura viciae). The assay is described as follows: Vetch aphid (Megoura viciae), bean leaf disk microtiterplate test. Particulars: foliar, 144 h, concentration of the test solution 2500 mg/L, 6 days. The method, then: The active compounds were formulated in 1:3 (vol:vol) DMSO:water with different concentrations of formulated compounds.
Bean leaf disks were placed into microtiterplates filled with 0.8% agar-agar and 2.5 ppm OPUS™. The leaf disks were sprayed with 2.5 μl of the test solution and 5 to 8 adult aphids were placed into the microtiterplates which were then closed and kept at 23±1° C. and 50±5% relative humidity under fluorescent light for 6 days. Mortality was assessed on the basis of vital, reproduced aphids. Aphid mortality and fecundity was then visually assessed.

In assay [2] the test system is Green Peach Aphid (Myzus persicae, Mixed Life Stages). The assay is described as follows: Green peach aphid (Myzus persicae, mixed life stages), pepper leaf dip test. Particulars: foliar, 120 h, after 5 days, in comparison with untreated controls. From the text:
(§1) The active compounds were formulated in 50:50 (vol:vol) acetone:water and 100 ppm Kinetica™ surfactant.
Pepper plants in the 2nd leaf-pair stage (variety ‘California Wonder’) were infested with approximately 40 laboratory-reared aphids by placing infested leaf sections on top of the test plants. The leaf sections were removed after 24 hr. The leaves of the intact plants were dipped into gradient solutions of the test compound and allowed to dry. Test plants were maintained under fluorescent light (24 hour photoperiod) at about 25° C. and 20-40% relative humidity. Aphid mortality on the treated plants, relative to mortality on check plants, was determined after 5 days.

Assay [3] has as its system Cowpea Aphid (aphis craccivora). The assay is described as follows: Cowpea aphid (aphis craccivora), spray on potted cowpea plants. Particulars: population reduction assessed after 24, 72 and 120 hours, in comparison with untreated controls. How it is done: The active compounds were formulated in 50:50 (vol:vol) acetone:water. The test solution was prepared at the day of use.
Potted cowpea plants colonized with 100-150 aphids of various stages were sprayed after the pest population had been recorded. Population reduction was assessed after 24, 72, and 120 hours.

In assay [4] the test system is Cotton Aphid (aphis gossypii, Mixed Life Stages). The assay is described as follows: Cotton aphid (aphis gossypii, mixed life stages), cotyledon dip test. Particulars: 120 h, mortality counts after 5 days, in comparison with untreated controls.
Text: as §1
Cotton plants at the cotyledon stage (one plant per pot) were infested by placing a heavily infested leaf from the main colony on top of each cotyledon. The aphids were allowed to transfer to the host plant overnight, and the leaf used to transfer the aphids was removed. The cotyledons were dipped in the test solution and allowed to dry. After 5 days, mortality counts were made.

The subject of assay [5] is Boll Weevil (Anthonomus grandis). The experiment in a line: Boll weevil (Anthonomus grandis), insect diet microtiter plate test. Particulars: 120 h, concentration of the test solution 2500 mg/L, egg and larval mortality after 5 days. How it is done: The compounds were formulated in 75:25 (vol:vol) water:DMSO.
For evaluating control of boll weevil (Anthonomus grandis) the test unit consisted of 24-well-microtiter plates containing an insect diet and 20-30 A. grandis eggs. Different concentrations of formulated compounds were sprayed onto the insect diet at 20 μl, using a custom built micro atomizer, at two replications. After application, the microtiter plates were incubated at 23±1° C. and 50±5% relative humidity for 5 days. Egg and larval mortality was then visually assessed.

Experimental findings from patent US8642597B2, “Pyrazole compounds for controlling invertebrate pests” (BASF SE, priority 2007, dated 2014) are described below.

One may read the mortality as the share of the test organisms that died. Lower therefore signals more survivors.

Take `N#CN(C(=O)c1cnn(C(F)F)c1C(F)F)c1cccnc1` [Compound 210]: the mortality at 2500 µg/mL in assay [1] is not below 80%. Further, the mortality at 300 ppm in assay [2] is not below 50%; in assay [3] it was not below 75%; in assay [4], not below 75%.

Turning to `CC(C)n1cc(C(=O)Nc2cccnc2)cn1` [Compound 200], the mortality at 300 ppm in assay [2] is not below 50%; in assay [3] it was not below 75%; in assay [4], not below 75%.

As for `CCn1cc(C(=O)N(C)c2cccnc2)c(C(F)F)n1` [Compound 182], in assay [1], the mortality at 2500 µg/mL is not below 80%. For the same compound, the mortality at 300 ppm is not below 50% in assay [2], not below 75% in assay [3] and not below 75% in assay [4].

In the case of `O=C(Nc1cccnc1)c1cn(-c2ccc([N+](=O)[O-])cc2)nc1C(F)F` [Compound 171], the mortality at 2500 µg/mL in assay [5] turned out to be 100%.

The compound `CCc1c(C(=O)Nc2cccnc2)cnn1-c1ccc([N+](=O)[O-])cc1` [Compound 144] showed a mortality at 2500 µg/mL in assay [1] not below 80%. For the same compound, the values for the mortality at 300 ppm in assay [2], in assay [3] and in assay [4] were not below 50%, not below 75% and not below 75%, respectively.

Turning to `CN(C(=O)c1cnn(C(F)F)c1)c1cccnc1` [Compound 222], the mortality at 300 ppm in assay [2] was not below 50%; in assay [3], not below 75%; in assay [4], not below 75%.

In the case of `Cc1c(C(=O)N(C)c2cccnc2)cnn1C` [Compound 178], the mortality at 300 ppm was not below 50% in assay [2], not below 75% in assay [3] and not below 75% in assay [4].

As to `O=C(Nc1cccnc1)c1cnn(Cc2ccc(Cl)cc2)c1` [Compound 81], the mortality at 300 ppm in assay [2] was not below 50%; in assay [3] it was not below 75%. The same compound yielded a mortality at 2500 µg/mL in assay [5] of 100%.

In the case of `CC(C)n1cc(C(=O)Nc2cccnc2)cn1` [Compound 97], the mortality at 2500 µg/mL in assay [1] was not below 80%.

Regarding `CCCN(C(=O)c1cn(C)nc1C(F)(F)F)c1cccnc1` [Compound 202], in assay [1], the mortality at 2500 µg/mL was not below 80%. Besides, the mortality at 300 ppm was not below 50% in assay [2], not below 75% in assay [3] and not below 75% in assay [4].

`COc1ccc(-n2ncc(C(=O)Nc3cccnc3)c2C(F)(F)F)cc1` [Compound 226] gave a mortality at 2500 µg/mL in assay [1] not below 80%. Also, the mortality at 300 ppm is not below 50% in assay [2] and not below 75% in assay [4].

Consider `O=C(Nc1cccnc1)c1cnn(-c2ccc(F)cc2)c1` [Compound 113], for which, in assay [3], the mortality at 300 ppm was not below 75%.

For `O=C(Nc1cccnc1)c1cnn(-c2ccc(Cl)cc2)c1C(F)F` [Compound 86], the mortality at 300 ppm in assay [2] is not below 50%; in assay [3], not below 75%; in assay [4], not below 75%. Further, the mortality at 2500 µg/mL in assay [5] was 100%.

Consider `Cc1c(C(=O)Nc2cccnc2)cnn1C(F)F` [Compound 208], for which the mortality at 300 ppm is not below 50% in assay [2], not below 75% in assay [3] and not below 75% in assay [4].

As for `O=C(Nc1cccnc1)c1cnn(-c2ccccc2)c1` [Compound 106], the mortality at 300 ppm in assay [3] was not below 75%. In addition, the mortality at 2500 µg/mL in assay [5] stood at 100%.

With `CCn1ncc(C(=O)Nc2cccnc2)c1C` [Compound 72], the mortality at 2500 µg/mL in assay [1] is not below 80%. In addition, the mortality at 300 ppm in assay [3] and in assay [4] was not below 75% throughout.

Consider `Cn1ccc(C(=O)Nc2cccnc2)n1` [Compound 1], for which the mortality at 300 ppm in assay [2] was not below 50%; in assay [3], not below 75%; in assay [4], not below 75%.

As to `Cc1cc(C(=O)Nc2cccnc2)n(C)n1` [Compound 3], in assay [1], the mortality at 2500 µg/mL was not below 80%. The mortality at 300 ppm in assay [2] is not below 50%; in assay [3], not below 75%; in assay [4], not below 75%.

On to `Cc1ccc(S(=O)(=O)N(C(=O)c2cn(C)nc2C(F)(F)F)c2cccnc2)cc1` [Compound 136], for which the mortality at 2500 µg/mL in assay [1] is not below 80%. Also, the mortality at 300 ppm in assay [2] is not below 50%; in assay [3], not below 75%; in assay [4], not below 75%.

Consider `O=C(Nc1cccnc1)c1cnn(C(F)F)c1C(F)F` [Compound 188], for which the mortality at 300 ppm in assay [2] is not below 50%; in assay [3], not below 75%; in assay [4], not below 75%. In assay [5], the mortality at 2500 µg/mL is 100%.

In turn, `Cc1c(C(=O)Nc2cccnc2)cnn1-c1ccc(F)cc1` [Compound 165] showed a mortality at 2500 µg/mL in assay [1] not below 80%. Also, the mortality at 300 ppm was not below 50% in assay [2], not below 75% in assay [3] and not below 75% in assay [4].

In assay [1], `Cn1ncc(C(=O)Nc2cccnc2)c1-c1ccccc1` [Compound 71] registered a mortality at 2500 µg/mL not below 80%. Besides, the mortality at 300 ppm in assay [2] was not below 50%; in assay [4], not below 75%.

For `CN(C(=O)c1cnn(C)c1)c1cccnc1` [Compound 177], the values for the mortality at 300 ppm in assay [2], in assay [3] and in assay [4] were not below 50%, not below 75% and not below 75%, respectively.

For `CCCCCCCn1cc(C(=O)Nc2cccnc2)cn1` [Compound 140], in assay [1], the mortality at 2500 µg/mL is not below 80%. Further, the mortality at 300 ppm in assay [2] was not below 50%.

Regarding `CC(C)c1c(C(=O)Nc2cccnc2)cnn1C` [Compound 90], the mortality at 300 ppm in assay [3] was not below 75%.

The compound `CC(C)c1c(C(=O)Nc2cccnc2)cnn1-c1ccccc1` [Compound 120] had a mortality at 2500 µg/mL in assay [1] not below 80%. Also, the mortality at 300 ppm in assay [2] was not below 50%; in assay [3], not below 75%; in assay [4], not below 75%.

In the case of `O=C(Nc1cccnc1)c1cnn(-c2ccccn2)c1` [Compound 105], the mortality at 300 ppm in assay [2] is not below 50%; in assay [4] it was not below 75%. This compound came in with a mortality at 2500 µg/mL in assay [5] of 100%.

For the compound `CCn1cc(C(=O)N(C)c2cccnc2)cn1` [Compound 187], the figures for the mortality at 300 ppm in assay [2], in assay [3] and in assay [4] were not below 50%, not below 75% and not below 75%, respectively.

`O=C(Nc1cccnc1)c1cnn(C(F)(F)F)c1` [Compound 205] showed a mortality at 2500 µg/mL in assay [1] not below 80%. Besides, the figures for the mortality at 300 ppm in assay [2], in assay [3] and in assay [4] were not below 50%, not below 75% and not below 75%, respectively.

As for `O=C(Nc1cccnc1)c1cn(C(F)F)nc1C(F)(F)F` [Compound 192], the mortality at 300 ppm is not below 50% in assay [2], not below 75% in assay [3] and not below 75% in assay [4]. Also, the mortality at 2500 µg/mL in assay [5] is 100%.

As to `O=C(Nc1cccnc1)c1cnn(C2CC2)c1` [Compound 119], in assay [1], the mortality at 2500 µg/mL was not below 80%. Moreover, the values for the mortality at 300 ppm in assay [2], in assay [3] and in assay [4] were not below 50%, not below 75% and not below 75%, respectively.

`C#CCN(C(=O)c1cn(C)nc1C(F)(F)F)c1cccnc1` [Compound 141] gave a mortality at 2500 µg/mL in assay [1] not below 80%. The values for the mortality at 300 ppm in assay [2], in assay [3] and in assay [4] were not below 50%, not below 75% and not below 75%, respectively.

As to `O=C(Nc1cccnc1)c1cnn(-c2c(F)cccc2F)c1C(F)F` [Compound 162], the values for the mortality at 2500 µg/mL in assay [1] and in assay [5] were not below 80% and 100%, respectively.

With `Cc1cc(C(=O)Nc2cccnc2)nn1C` [Compound 10], the mortality at 300 ppm in assay [2] is not below 50%; in assay [3] it was not below 75%; in assay [4], not below 75%.

In turn, `CC(C)N(C(=O)c1cn(C)nc1C(F)(F)F)c1cccnc1` [Compound 130] yielded a mortality at 2500 µg/mL in assay [1] not below 80%. Besides, the mortality at 300 ppm in assay [2] is not below 50%; in assay [4] it was not below 75%.

Turning to `Cc1nn(C)cc1C(=O)Nc1cccnc1` [Compound 70], the values for the mortality at 300 ppm in assay [2], in assay [3] and in assay [4] were not below 50%, not below 75% and not below 75%, respectively.

Take `CO/N=C(/Nc1cccnc1)c1cn(C)nc1C(F)(F)F` [Compound 242]: in assay [1], the mortality at 2500 µg/mL was not below 80%. Moreover, the mortality at 300 ppm is not below 50% in assay [2], not below 75% in assay [3] and not below 75% in assay [4].

With `O=C(Nc1cccnc1)c1cnn(-c2ccc(F)cc2)c1I` [Compound 124], in assay [1], the mortality at 2500 µg/mL was not below 80%. Besides, the mortality at 300 ppm was not below 50% in assay [2], not below 75% in assay [3] and not below 75% in assay [4].

With `O=C(Nc1cccnc1)c1cnn(-c2cccc([N+](=O)[O-])c2)c1C(F)F` [Compound 153], the mortality at 2500 µg/mL in assay [1] is not below 80%; in assay [5], 100%.
